One compound from EP4796530A1 (Biocells (Beijing) Biotech Co., Ltd., priority 2023, dated 2025) can be followed below.

In data set [1] the target is T1, NLRP3 (Mus musculus, UniProt Q8R4B8). The experiment in a line: Inhibition curves (IC50) of canonical NLRP3 activation in J774A.1 cells, IL-1β release. The format is cell-based. The conditions noted are these: J774A.1 cell LPS+Nig activation model. Details: The mouse macrophage cell line J774A.1 was used, and LPS was used as the first signal; host or cells: J774A.1 mouse monocyte-macrophage cell line. On the procedure: J774A.1 cells were plated in a 48-well plate at a density of 1.0×10^6 cells/mL, with 300 µL per well. Subsequently, NLRP3 was activated by LPS+ATP or LPS+Nig. […] ATP was purchased from Sigma, Cat. No.: L2654. Nig was purchased from Shanghai Yuanye Bio-Technology Co., Ltd., Cat. No.: S45490.
T1 sequence (Q8R4B8 whole entry): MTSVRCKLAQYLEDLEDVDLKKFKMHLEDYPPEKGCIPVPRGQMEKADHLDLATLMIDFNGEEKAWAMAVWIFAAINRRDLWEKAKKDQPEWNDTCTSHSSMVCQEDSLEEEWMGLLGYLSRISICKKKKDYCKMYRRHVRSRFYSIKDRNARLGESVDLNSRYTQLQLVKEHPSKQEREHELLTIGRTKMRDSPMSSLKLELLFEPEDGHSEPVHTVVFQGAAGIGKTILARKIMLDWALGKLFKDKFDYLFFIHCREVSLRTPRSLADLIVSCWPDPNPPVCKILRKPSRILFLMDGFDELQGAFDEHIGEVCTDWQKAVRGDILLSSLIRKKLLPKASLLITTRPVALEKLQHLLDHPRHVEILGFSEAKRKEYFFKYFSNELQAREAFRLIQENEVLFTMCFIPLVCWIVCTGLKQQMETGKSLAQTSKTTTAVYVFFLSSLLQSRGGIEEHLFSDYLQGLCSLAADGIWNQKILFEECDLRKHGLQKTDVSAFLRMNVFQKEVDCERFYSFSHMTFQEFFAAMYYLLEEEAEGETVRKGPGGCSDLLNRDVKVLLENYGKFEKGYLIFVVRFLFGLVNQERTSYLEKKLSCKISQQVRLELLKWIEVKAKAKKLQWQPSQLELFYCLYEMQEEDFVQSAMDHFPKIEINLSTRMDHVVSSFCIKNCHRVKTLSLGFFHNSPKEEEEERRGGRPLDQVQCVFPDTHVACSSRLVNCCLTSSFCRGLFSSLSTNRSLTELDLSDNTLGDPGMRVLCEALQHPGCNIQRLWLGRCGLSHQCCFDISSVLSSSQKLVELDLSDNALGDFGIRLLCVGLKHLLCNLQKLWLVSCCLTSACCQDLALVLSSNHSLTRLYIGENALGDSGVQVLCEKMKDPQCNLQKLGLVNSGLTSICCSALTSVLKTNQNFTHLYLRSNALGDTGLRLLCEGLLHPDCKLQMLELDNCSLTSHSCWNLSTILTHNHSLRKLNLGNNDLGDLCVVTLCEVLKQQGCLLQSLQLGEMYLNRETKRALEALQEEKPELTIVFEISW
Experimental groups: a negative control group, an LPS-alone incubation control group, an LPS+ATP/Nig positive control group, and an example compound experimental group with different concentrations.
After the plated J774A.1 cells adhering to the plate, the culture medium was replaced. For all the groups except the negative control group, the culture medium was completely replaced with cell culture medium containing 1 µg/mL LPS. The negative control group received cell culture medium. Then, all the groups were incubated overnight. 18 h later, the culture medium was replaced again. The culture medium of the example compound experimental group was completely replaced with culture medium containing different concentrations of compounds; while the negative control group, the LPS-alone incubation control group, and the LPS+ATP/Nig positive control group received cell culture medium. 1 h later, the culture mediums of the LPS+ATP/Nig positive control group and the example compound experimental group with different concentrations were completely replaced with cell culture medium containing 5 mM ATP or 10 µM Nig. 1 h later, the cell supernatants were collected for IL-1β detection.
Therefore, the relative change in the amount of IL-1β release may directly reflect NLRP3 inhibitory effect. The inhibitory effect of the compounds varies with different concentrations, and based on this, an inhibition curve can be constructed, and the inhibitory effects of the compounds were assessed by IC50.

Data set [2] deals with T2, NLRP3 (Homo sapiens, UniProt Q96P20). The experiment in a line: Inhibition of canonical NLRP3 activation (LPS+Nig) in PMA-differentiated THP-1 cells, IL-1β release, single concentration. Particulars: 1 µM compound, FIG. 6 legend.
T2 sequence (Q96P20 whole entry): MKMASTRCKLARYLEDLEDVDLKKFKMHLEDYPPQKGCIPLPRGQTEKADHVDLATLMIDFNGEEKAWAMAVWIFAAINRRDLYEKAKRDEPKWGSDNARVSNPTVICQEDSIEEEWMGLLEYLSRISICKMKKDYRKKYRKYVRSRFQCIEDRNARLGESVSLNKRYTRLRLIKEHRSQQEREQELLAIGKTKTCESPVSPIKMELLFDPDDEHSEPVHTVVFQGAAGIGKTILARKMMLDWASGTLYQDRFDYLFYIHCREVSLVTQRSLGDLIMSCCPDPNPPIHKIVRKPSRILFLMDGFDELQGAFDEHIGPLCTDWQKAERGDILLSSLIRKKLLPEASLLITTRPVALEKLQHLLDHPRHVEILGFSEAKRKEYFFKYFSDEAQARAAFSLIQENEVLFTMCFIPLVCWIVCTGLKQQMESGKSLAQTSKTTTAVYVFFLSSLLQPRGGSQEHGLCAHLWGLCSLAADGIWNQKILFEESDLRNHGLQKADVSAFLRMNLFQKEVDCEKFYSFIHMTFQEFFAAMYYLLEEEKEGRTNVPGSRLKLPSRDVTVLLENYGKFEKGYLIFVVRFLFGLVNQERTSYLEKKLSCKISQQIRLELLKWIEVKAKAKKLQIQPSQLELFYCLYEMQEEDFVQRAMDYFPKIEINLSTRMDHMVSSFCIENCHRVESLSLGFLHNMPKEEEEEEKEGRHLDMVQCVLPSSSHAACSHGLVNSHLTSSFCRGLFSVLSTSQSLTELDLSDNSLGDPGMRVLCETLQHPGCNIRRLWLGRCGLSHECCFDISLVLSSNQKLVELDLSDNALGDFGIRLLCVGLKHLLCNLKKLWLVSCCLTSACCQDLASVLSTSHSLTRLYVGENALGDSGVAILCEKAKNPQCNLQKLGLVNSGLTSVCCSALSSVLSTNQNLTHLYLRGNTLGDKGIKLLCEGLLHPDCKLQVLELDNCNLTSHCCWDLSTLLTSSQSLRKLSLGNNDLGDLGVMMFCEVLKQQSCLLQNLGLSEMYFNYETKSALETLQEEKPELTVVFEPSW
Description: THP-1 cells were plated in a 96-well plate at a density of 1.0×10^6 cells/mL, with 100 µL per well. Subsequently, PMA-induced differentiation and cell resting were performed, followed by activation of NLRP3 by LPS+Nig.
Experimental groups: a negative control group, an LPS-alone incubation control group, an LPS+Nig positive control group, and a 1 µM example compound experimental group.
100 ng/mL PMA was added at the same time as THP-1 cells were plated. After incubation for 24 h, the cells were washed three times with PBS, and then the culture medium was changed and the cells were allowed to rest for 24 h. Then the culture medium was completely replaced with medium containing 1 µg/mL LPS. The cells were incubated overnight. On the next day, the wells to which LPS was added completely received culture medium, and then the wells were incubated with specified example compounds for 1 h.
In this experimental example, effectively inhibiting IL-1β release means that the release amount in each group is reduced by 50% or more compared with that of the positive control.
In data set [3] the target is T2, NLRP3. The experiment in a line: Inhibition curves (IC50) of canonical NLRP3 activation in healthy human whole blood, IL-1β release. The format is cell-based. The conditions noted are these: LPS+1 mM ATP canonical activation model.
Description: 10 mL of human whole blood was collected intravenously aseptically, and plated into a 96-well plate, with 198 µL per well. Then, 2 µL of 100× gradient dilutions of the example compounds at specified concentrations were added, immediately followed by the addition of 10 µL of 21 µg/mL LPS gradient dilution. 3 h later, nigericin with a working concentration of 5 µM or 1 mM ATP was added. After stimulation for 1 h, the whole blood was collected and centrifuged to collect the supernatant. IL-1β in the sample supernatant was detected by ELISA method.
Experimental groups: a negative control group, an LPS-alone incubation control group, an LPS+Nig/ATP positive control group, and a 1 µM example compound experimental group.
10 mL of human whole blood was collected intravenously aseptically. The anticoagulant heparin sodium was added preemptively into a 50 mL centrifuge tube. The collected whole blood was directly plated in a 96-well plate, with 198 µL per well. […] IL-1β in the sample supernatant was detected by ELISA method.
Therefore, the relative change in the amount of IL-1β release may directly reflect NLRP3 inhibitory effect. The inhibitory effect of the compounds varies with different concentrations, and based on this, an inhibition curve can be constructed, and the inhibitory effect of the compounds were assessed by IC50.
Data set [4] in a line: Mouse pharmacokinetics after intravenous administration (plasma and brain, LC-MS). The conditions noted are these: C57 mice, intravenous 5 mg/kg. The class given is in vivo. As for the experimental part:
C57 mice were administered intravenously, at a dosage concentration of 5 mg/kg in each group. Retro-orbital blood collection was performed on the mice at 1 min, 30 min, 1 h, and 2 h post-dosing. The collected blood was centrifuged at 3000 rpm for 10 min at 4 °C to obtain plasma. Acetonitrile was added at a 1:3 volume ratio of plasma: acetonitrile to precipitate proteins. After centrifugation, the supernatant was collected and filtered. The concentration of the compound was detected using LC-MS (Agilent 1260-G6125, SIM mode). In addition, 2 h after drug injection, the mice were subjected to cardiac perfusion and then their brains were harvested. Following tissue homogenization and centrifugation, the supernatant was collected. Acetonitrile was added at a 1:3 volume ratio of supernatant: acetonitrile to precipitate proteins. After centrifugation, the supernatant was collected and filtered. The concentration of the compound was detected using LC-MS (Agilent 1260-G6125, SIM mode).
Experimental groups: a vehicle control group, and a dosing group.

Data set [5] addresses T1, NLRP3. The experiment in a line: Inhibition of canonical NLRP3 activation (LPS+ATP/Nig) in J774A.1 cells, IL-1β release by ELISA, single concentration. The format is cell-based. On the set-up: The mouse macrophage cell line J774A.1 was used, and LPS was used as the first signal; host or cells: J774A.1 mouse monocyte-macrophage cell line. Particulars: J774.A1, 1 µM compound, LPS + 5 mM ATP or 10 µM Nig, compared with the positive control, read-out: inhibition of IL-1β release. On the procedure: J774A.1 cells were plated in a 48-well plate at a density of 1.0×10^6 cells/mL, with 300 µL per well. Subsequently, NLRP3 was activated using LPS+5 mM ATP (adenosine triphosphate) or 10 µM Nig (nigericin). […] ATP was purchased from Sigma, Cat. No.: L2654. Nig was purchased from Shanghai Yuanye Bio-Technology Co., Ltd., Cat. No.: S45490.
Experimental groups: a negative control group, an LPS-alone incubation control group, an LPS+ATP or +Nig positive control group, and an example compound experimental group.
After the plated J774A.1 cells adhering to the plate, the culture medium was replaced. For all the groups except the negative control group, the culture medium was completely replaced with cell culture medium containing 1 µg/mL LPS. The negative control group received cell culture medium. Then, all the groups were incubated overnight. 18 h later, the culture medium was replaced again. The culture medium of the example compound experimental group was completely replaced with cell culture medium containing the compounds; while the negative control group, the LPS-alone incubation control group, and the LPS+ATP/Nig positive control group received cell culture medium. 1 h later, the culture mediums of the LPS+ATP/Nig positive control group and the example compound experimental group were completely replaced with cell culture medium containing 5 mM ATP or 10 µM Nig. 1 h later, the cell supernatants were collected for IL-1β detection.
Therefore, the relative change in the amount of IL-1β release may directly reflect NLRP3 inhibitory effect.
On the technique in general: ELISA stands for enzyme-linked immunosorbent assay.

In general, IC50 refers to the midpoint of a concentration-inhibition curve. Low readings indicate greater potency in that assay, high ones weaker potency in that assay. For orientation: half-life means the time in which the quantity being followed falls by half. As usually defined, the AUC is the area under the concentration-time curve, a measure of exposure. The term inhibition denotes the drop in the measured response relative to a control, in per cent.

`CN(C)Cc1cccc(S(=O)(=O)NC(=O)Nc2c3c(cc4c2CCC4)CCC3)c1O` [Example 27, 3-((dimethylamino)methyl)-N-((1,2,3,5,6,7-hexahydro-s-indacen-4-yl)carbamoyl)-2-hydroxybenzenesulfonamide]: the IC50 at NLRP3 [1] amounted to 0.0796 µM; at NLRP3 [3] it was 55.8 µM. The “reduction in release amount compared with that of the positive control minus the LPS-alone control” value on NLRP3 [2] is reported as not below 75%. Further, the concentration at 120 min in data set [4] (brain after cardiac perfusion, read-out: brain drug concentration at 120 min) amounted to 0.096 µg/mL. The half-life in data set [4] (plasma) stood at 2.88 h. The AUC in data set [4] (plasma, read-out: area under the curve (AUC) from 1 to 120 min) stood at 47.3 µg·h/mL. At NLRP3 [5], the inhibition at 1 µM was more than 80%.
